In the supplement of paper PMC8149375:

How the values were obtained:
Details in all cases: treatment: drug alone; 5 days
[1] = tested on: ACHN; assay: minimum viability across doses, drug alone, relative to DMSO (fraction); higher = less growth inhibition
Description: (§1)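 Primary HTS: 8 RCC cell lines treated with 8 doses (up to 10 uM) of each library drug alone for 5 days; viability read by CellTiter-Glo and normalised to DMSO. GI50 was fitted with XLfit (4-parameter), AUC is the area under the dose-response curve, and minimum viability is the lowest fraction of DMSO viability across doses.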

[2] = tested on: TK-10; assay: as above
Description: as §1

[3] = tested on: SN12C; assay: as above
Description: as §1

[4] = tested on: CAKI-1; assay: as above
Description: as §1

[5] = tested on: UO-31; assay: as above
Description: as §1

[6] = tested on: 786-O; assay: as above
Description: as §1

[7] = tested on: 769-P; assay: as above
Description: as §1

[8] = tested on: A498; assay: as above
Description: as §1

[9] = tested on: ACHN; assay: GI50, drug alone; higher = less potent
Description: as §1

[10] = tested on: TK-10; assay: GI50, drug alone; higher = less potent
Description: as §1

[11] = tested on: SN12C; assay: GI50, drug alone; higher = less potent
Description: as §1

[12] = tested on: CAKI-1; assay: GI50, drug alone; higher = less potent
Description: as §1

[13] = tested on: UO-31; assay: GI50, drug alone; higher = less potent
Description: as §1

[14] = tested on: 786-O; assay: GI50, drug alone; higher = less potent
Description: as §1

[15] = tested on: 769-P; assay: GI50, drug alone; higher = less potent
Description: as §1

[16] = tested on: A498; assay: GI50, drug alone; higher = less potent
Description: as §1

[17] = tested on: ACHN; assay: AUC of dose-response viability curve, drug alone (arbitrary (AUC of normalised viability)); higher = less growth inhibition
Description: as §1

[18] = tested on: TK-10; assay: as above
Description: as §1

[19] = tested on: SN12C; assay: as above
Description: as §1

[20] = tested on: CAKI-1; assay: as above
Description: as §1

[21] = tested on: UO-31; assay: as above
Description: as §1

[22] = tested on: 786-O; assay: as above
Description: as §1

[23] = tested on: 769-P; assay: as above
Description: as §1

[24] = tested on: A498; assay: as above
Description: as §1

Cc1ccc(NC(=O)c2ccc(CN3CCN(C)CC3)cc2)cc1Nc1nc(-c2cccnc2)cs1 [Masitinib (AB1010)]
minimum viability across doses [1]: 0.482 | minimum viability across doses [2]: 0.651 | minimum viability across doses [3]: 0.292 | minimum viability across doses [4]: 0.784 | minimum viability across doses [5]: 1 | minimum viability across doses [6]: 0.168 | minimum viability across doses [7]: 0.749 | minimum viability across doses [8]: 0.635 | GI50, drug alone [9]: 9.54 µM | GI50, drug alone [10]: > 10 µM | GI50, drug alone [11]: 5.8 µM | GI50, drug alone [12]: > 10 µM | GI50, drug alone [13]: > 10 µM | GI50, drug alone [14]: 5.57 µM | GI50, drug alone [15]: > 10 µM | GI50, drug alone [16]: > 10 µM | AUC of dose-response viability curve [17]: 3.23 | AUC of dose-response viability curve [18]: 3.39 | AUC of dose-response viability curve [19]: 3.01 | AUC of dose-response viability curve [20]: 3.47 | AUC of dose-response viability curve [21]: 4.02 | AUC of dose-response viability curve [22]: 3.22 | AUC of dose-response viability curve [23]: 3.32 | AUC of dose-response viability curve [24]: 3.2

CC1(C)CNc2cc(NC(=O)c3cccnc3NCc3ccncc3)ccc21.O=P(O)(O)O.O=P(O)(O)O [Motesanib Diphosphate]
minimum viability across doses [1]: 0.818 | minimum viability across doses [2]: 0.757 | minimum viability across doses [3]: 0.832 | minimum viability across doses [4]: 0.756 | minimum viability across doses [5]: 0.976 | minimum viability across doses [6]: 0.777 | minimum viability across doses [7]: 0.943 | minimum viability across doses [8]: 0.86 | GI50, drug alone [9]: > 10 µM | GI50, drug alone [10]: > 10 µM | GI50, drug alone [11]: > 10 µM | GI50, drug alone [12]: > 10 µM | GI50, drug alone [13]: > 10 µM | GI50, drug alone [14]: > 10 µM | GI50, drug alone [15]: > 10 µM | GI50, drug alone [16]: > 10 µM | AUC of dose-response viability curve [17]: 3.4 | AUC of dose-response viability curve [18]: 3.09 | AUC of dose-response viability curve [19]: 3.19 | AUC of dose-response viability curve [20]: 3.36 | AUC of dose-response viability curve [21]: 4.68 | AUC of dose-response viability curve [22]: 3.26 | AUC of dose-response viability curve [23]: 3.53 | AUC of dose-response viability curve [24]: 3.77

FC(F)(F)c1ccc(/C=C/c2nc(COc3ccc(CCCCn4ccnn4)cc3)co2)cc1 [Mubritinib (TAK 165)]
minimum viability across doses [1]: 0.125 | minimum viability across doses [2]: 0.21 | minimum viability across doses [3]: 0.0401 | minimum viability across doses [4]: 0.765 | minimum viability across doses [5]: 0.033 | minimum viability across doses [6]: 0.0382 | minimum viability across doses [7]: 0.586 | minimum viability across doses [8]: 0.151 | GI50, drug alone [9]: 0.116 µM | GI50, drug alone [10]: 0.147 µM | GI50, drug alone [11]: 0.0429 µM | GI50, drug alone [12]: > 10 µM | GI50, drug alone [13]: 0.058 µM | GI50, drug alone [14]: 0.0329 µM | GI50, drug alone [15]: > 10 µM | GI50, drug alone [16]: 0.154 µM | AUC of dose-response viability curve [17]: 1.78 | AUC of dose-response viability curve [18]: 1.78 | AUC of dose-response viability curve [19]: 1.14 | AUC of dose-response viability curve [20]: 2.96 | AUC of dose-response viability curve [21]: 1.39 | AUC of dose-response viability curve [22]: 1.04 | AUC of dose-response viability curve [23]: 2.86 | AUC of dose-response viability curve [24]: 2.12

Nc1ncnc2c1c(-c1cccc(OCc3ccccc3)c1)cn2[C@H]1C[C@H](CN2CCCC2)C1 [NVP-ADW742]
minimum viability across doses [1]: 0.275 | minimum viability across doses [2]: 0.329 | minimum viability across doses [3]: 0.612 | minimum viability across doses [4]: 0.362 | minimum viability across doses [5]: 0.0137 | minimum viability across doses [6]: 0.19 | minimum viability across doses [7]: 0.478 | minimum viability across doses [8]: 0.377 | GI50, drug alone [9]: 3.35 µM | GI50, drug alone [10]: 5.26 µM | GI50, drug alone [11]: > 10 µM | GI50, drug alone [12]: 6.48 µM | GI50, drug alone [13]: 8.26 µM | GI50, drug alone [14]: 5.94 µM | GI50, drug alone [15]: > 10 µM | GI50, drug alone [16]: 9.56 µM | AUC of dose-response viability curve [17]: 2.38 | AUC of dose-response viability curve [18]: 2.63 | AUC of dose-response viability curve [19]: 3.2 | AUC of dose-response viability curve [20]: 3.01 | AUC of dose-response viability curve [21]: 3.24 | AUC of dose-response viability curve [22]: 2.71 | AUC of dose-response viability curve [23]: 3.14 | AUC of dose-response viability curve [24]: 3.59

COc1ccc(-c2ccc3ncc4c(c3c2)n(-c2ccc(N3CCNCC3)c(C(F)(F)F)c2)c(=O)n4C)cn1.O=C(O)/C=C\C(=O)O [NVP-BGT226]
minimum viability across doses [1]: 0.00135 | minimum viability across doses [2]: 0.00394 | minimum viability across doses [3]: 0.00358 | minimum viability across doses [4]: 0.00344 | minimum viability across doses [5]: 0.00819 | minimum viability across doses [6]: 0.00447 | minimum viability across doses [7]: 0.00969 | minimum viability across doses [8]: 0.0133 | GI50, drug alone [9]: 0.0149 µM | GI50, drug alone [10]: 0.0202 µM | GI50, drug alone [11]: 0.0158 µM | GI50, drug alone [12]: 0.0272 µM | GI50, drug alone [13]: 0.0113 µM | GI50, drug alone [14]: 0.0129 µM | GI50, drug alone [15]: 0.0362 µM | GI50, drug alone [16]: 0.0291 µM | AUC of dose-response viability curve [17]: 0.785 | AUC of dose-response viability curve [18]: 0.903 | AUC of dose-response viability curve [19]: 0.857 | AUC of dose-response viability curve [20]: 1.03 | AUC of dose-response viability curve [21]: 0.578 | AUC of dose-response viability curve [22]: 0.728 | AUC of dose-response viability curve [23]: 1.22 | AUC of dose-response viability curve [24]: 1.21

Cc1ccc(C(=O)Nc2cccc(C(F)(F)F)c2)cc1Nc1nc(-c2cccnc2)nc2c1cnn2C [NVP-BHG712]
minimum viability across doses [1]: 0.109 | minimum viability across doses [2]: 0.0678 | minimum viability across doses [3]: 0.0886 | minimum viability across doses [4]: 0.0328 | minimum viability across doses [5]: 0.00612 | minimum viability across doses [6]: 0.00203 | minimum viability across doses [7]: 0.06 | minimum viability across doses [8]: 0.023 | GI50, drug alone [9]: 1.9 µM | GI50, drug alone [10]: 1.34 µM | GI50, drug alone [11]: 4.56 µM | GI50, drug alone [12]: 2.45 µM | GI50, drug alone [13]: 8.28 µM | GI50, drug alone [14]: 0.809 µM | GI50, drug alone [15]: 3.81 µM | GI50, drug alone [16]: 8.45 µM | AUC of dose-response viability curve [17]: 2.89 | AUC of dose-response viability curve [18]: 2.45 | AUC of dose-response viability curve [19]: 3.15 | AUC of dose-response viability curve [20]: 3.03 | AUC of dose-response viability curve [21]: 5.14 | AUC of dose-response viability curve [22]: 2.18 | AUC of dose-response viability curve [23]: 3.13 | AUC of dose-response viability curve [24]: 3.97

Cl.Cl.Fc1cc(-c2cccc3ncc(-c4cnn(C5CCNCC5)c4)nc23)cc(F)c1CN1CCOCC1 [NVP-BSK805]
minimum viability across doses [1]: 0.0296 | minimum viability across doses [2]: 0.212 | minimum viability across doses [3]: 0.331 | minimum viability across doses [4]: 0.0193 | minimum viability across doses [5]: 0.00823 | minimum viability across doses [6]: 0.00287 | minimum viability across doses [7]: 0.0465 | minimum viability across doses [8]: 0.0305 | GI50, drug alone [9]: 1.6 µM | GI50, drug alone [10]: 3.4 µM | GI50, drug alone [11]: 7.39 µM | GI50, drug alone [12]: 2.39 µM | GI50, drug alone [13]: 8.51 µM | GI50, drug alone [14]: 3.95 µM | GI50, drug alone [15]: 5.73 µM | GI50, drug alone [16]: 7.77 µM | AUC of dose-response viability curve [17]: 2.62 | AUC of dose-response viability curve [18]: 2.63 | AUC of dose-response viability curve [19]: 2.87 | AUC of dose-response viability curve [20]: 2.74 | AUC of dose-response viability curve [21]: 4.15 | AUC of dose-response viability curve [22]: 2.23 | AUC of dose-response viability curve [23]: 3.09 | AUC of dose-response viability curve [24]: 3.8

Cn1cc(-c2ccc3ncc(Cc4ccc5ncccc5c4)n3n2)cn1 [NVP-BVU972]
minimum viability across doses [1]: 0.0166 | minimum viability across doses [2]: 0.12 | minimum viability across doses [3]: 0.0229 | minimum viability across doses [4]: 0.0623 | minimum viability across doses [5]: 0.018 | minimum viability across doses [6]: 0.00923 | minimum viability across doses [7]: 0.0466 | minimum viability across doses [8]: 0.0174 | GI50, drug alone [9]: 1.32 µM | GI50, drug alone [10]: 1.3 µM | GI50, drug alone [11]: 1.4 µM | GI50, drug alone [12]: 1.17 µM | GI50, drug alone [13]: 1.4 µM | GI50, drug alone [14]: 0.589 µM | GI50, drug alone [15]: > 10 µM | GI50, drug alone [16]: 2.53 µM | AUC of dose-response viability curve [17]: 2.78 | AUC of dose-response viability curve [18]: 2.58 | AUC of dose-response viability curve [19]: 2.75 | AUC of dose-response viability curve [20]: 2.77 | AUC of dose-response viability curve [21]: 4.11 | AUC of dose-response viability curve [22]: 2.24 | AUC of dose-response viability curve [23]: 3.07 | AUC of dose-response viability curve [24]: 3.94

CNC(=O)c1ccccc1Nc1nc(Nc2ccc(N3CCOCC3)cc2OC)ncc1Cl [NVP-TAE226]
minimum viability across doses [1]: 0.102 | minimum viability across doses [2]: 0.102 | minimum viability across doses [3]: 0.295 | minimum viability across doses [4]: 0.0558 | minimum viability across doses [5]: 0.398 | minimum viability across doses [6]: 0.00915 | minimum viability across doses [7]: 0.29 | minimum viability across doses [8]: 0.703 | GI50, drug alone [9]: 0.962 µM | GI50, drug alone [10]: 0.551 µM | GI50, drug alone [11]: 5.13 µM | GI50, drug alone [12]: 1.36 µM | GI50, drug alone [13]: 8.15 µM | GI50, drug alone [14]: 0.0528 µM | GI50, drug alone [15]: 2.76 µM | GI50, drug alone [16]: > 10 µM | AUC of dose-response viability curve [17]: 2.43 | AUC of dose-response viability curve [18]: 2.12 | AUC of dose-response viability curve [19]: 2.95 | AUC of dose-response viability curve [20]: 2.64 | AUC of dose-response viability curve [21]: 3.21 | AUC of dose-response viability curve [22]: 1.15 | AUC of dose-response viability curve [23]: 2.93 | AUC of dose-response viability curve [24]: 4.76
